{"source": "ChEMBL document CHEMBL5728890", "about": "“HDAC6 inhibitors and imaging agents” (2021)", "key": {"[1]": {"target": "T1, Polyamine deacetylase HDAC10 (Homo sapiens, UniProt Q969S8)", "T1 sequence (Q969S8 whole entry)": "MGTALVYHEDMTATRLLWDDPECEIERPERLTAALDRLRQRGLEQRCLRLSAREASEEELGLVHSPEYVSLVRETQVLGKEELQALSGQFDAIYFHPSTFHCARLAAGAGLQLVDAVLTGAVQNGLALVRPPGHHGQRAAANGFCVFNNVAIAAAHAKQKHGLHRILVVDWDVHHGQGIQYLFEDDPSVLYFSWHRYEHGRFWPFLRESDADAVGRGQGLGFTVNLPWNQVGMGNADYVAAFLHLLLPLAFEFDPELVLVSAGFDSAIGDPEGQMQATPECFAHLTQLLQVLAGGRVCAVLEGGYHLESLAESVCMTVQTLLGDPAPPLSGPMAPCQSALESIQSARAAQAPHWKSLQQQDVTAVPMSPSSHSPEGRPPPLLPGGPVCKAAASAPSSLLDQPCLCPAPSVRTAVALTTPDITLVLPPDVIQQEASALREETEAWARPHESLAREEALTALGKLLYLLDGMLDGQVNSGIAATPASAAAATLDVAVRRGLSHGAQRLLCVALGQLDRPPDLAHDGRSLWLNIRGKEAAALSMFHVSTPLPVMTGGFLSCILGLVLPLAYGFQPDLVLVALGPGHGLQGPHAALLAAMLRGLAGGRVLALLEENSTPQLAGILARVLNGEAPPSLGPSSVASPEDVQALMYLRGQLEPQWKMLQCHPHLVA", "assay": "(§1) IC50 Assay: IC50 measurements were conducted by BPS Biosciences (Table 1) or by Nanosyn (Table 1A) with an established fluorescence assay."}, "Histone deacetylase 8": {"target": "T2, Histone deacetylase 8 (Homo sapiens, UniProt Q9BY41)", "T2 sequence (Q9BY41 whole entry)": "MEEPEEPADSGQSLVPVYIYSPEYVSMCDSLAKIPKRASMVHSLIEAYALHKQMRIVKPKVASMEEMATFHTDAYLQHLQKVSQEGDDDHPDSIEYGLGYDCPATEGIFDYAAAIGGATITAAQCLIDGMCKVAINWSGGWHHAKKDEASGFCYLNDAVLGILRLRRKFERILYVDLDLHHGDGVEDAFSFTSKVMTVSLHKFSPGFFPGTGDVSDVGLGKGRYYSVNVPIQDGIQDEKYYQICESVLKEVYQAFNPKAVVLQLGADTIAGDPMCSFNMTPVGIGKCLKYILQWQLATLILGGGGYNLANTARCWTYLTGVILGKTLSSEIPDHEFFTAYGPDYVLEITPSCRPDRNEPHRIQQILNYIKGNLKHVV", "assay": "as §1"}, "Histone deacetylase 5": {"target": "Histone deacetylase 5 (Homo sapiens, UniProt Q9UQL6)", "sequence (Q9UQL6 whole entry)": "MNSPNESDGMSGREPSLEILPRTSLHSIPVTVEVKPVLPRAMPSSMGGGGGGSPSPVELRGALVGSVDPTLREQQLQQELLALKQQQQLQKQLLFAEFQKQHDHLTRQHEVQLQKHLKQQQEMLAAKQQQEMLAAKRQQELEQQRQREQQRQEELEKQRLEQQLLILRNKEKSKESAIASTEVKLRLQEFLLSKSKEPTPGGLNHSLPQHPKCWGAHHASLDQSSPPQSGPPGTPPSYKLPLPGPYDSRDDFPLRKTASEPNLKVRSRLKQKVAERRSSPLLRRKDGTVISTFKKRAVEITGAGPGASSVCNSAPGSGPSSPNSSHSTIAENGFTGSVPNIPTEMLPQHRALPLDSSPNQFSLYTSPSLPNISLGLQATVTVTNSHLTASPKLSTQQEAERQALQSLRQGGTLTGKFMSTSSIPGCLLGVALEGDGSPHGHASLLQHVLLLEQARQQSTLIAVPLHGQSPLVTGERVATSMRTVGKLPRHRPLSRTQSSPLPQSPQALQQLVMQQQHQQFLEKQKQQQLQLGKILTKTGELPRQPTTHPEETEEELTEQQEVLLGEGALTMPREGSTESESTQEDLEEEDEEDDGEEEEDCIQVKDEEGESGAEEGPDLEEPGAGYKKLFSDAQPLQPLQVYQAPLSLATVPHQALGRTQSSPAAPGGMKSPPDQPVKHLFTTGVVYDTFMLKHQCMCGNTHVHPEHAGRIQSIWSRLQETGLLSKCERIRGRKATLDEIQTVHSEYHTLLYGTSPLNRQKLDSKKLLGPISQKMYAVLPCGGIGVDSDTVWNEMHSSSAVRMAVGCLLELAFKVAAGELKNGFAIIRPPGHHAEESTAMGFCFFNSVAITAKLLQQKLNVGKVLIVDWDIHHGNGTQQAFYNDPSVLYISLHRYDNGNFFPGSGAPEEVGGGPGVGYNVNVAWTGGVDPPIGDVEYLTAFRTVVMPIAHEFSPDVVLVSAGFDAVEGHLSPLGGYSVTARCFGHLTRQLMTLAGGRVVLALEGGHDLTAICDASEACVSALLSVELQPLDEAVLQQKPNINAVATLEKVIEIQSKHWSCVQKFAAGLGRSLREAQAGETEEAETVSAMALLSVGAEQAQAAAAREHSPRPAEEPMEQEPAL", "assay": "as §1"}, "Histone deacetylase 1": {"target": "Histone deacetylase 1 (Homo sapiens, UniProt Q13547)", "sequence (Q13547 whole entry)": "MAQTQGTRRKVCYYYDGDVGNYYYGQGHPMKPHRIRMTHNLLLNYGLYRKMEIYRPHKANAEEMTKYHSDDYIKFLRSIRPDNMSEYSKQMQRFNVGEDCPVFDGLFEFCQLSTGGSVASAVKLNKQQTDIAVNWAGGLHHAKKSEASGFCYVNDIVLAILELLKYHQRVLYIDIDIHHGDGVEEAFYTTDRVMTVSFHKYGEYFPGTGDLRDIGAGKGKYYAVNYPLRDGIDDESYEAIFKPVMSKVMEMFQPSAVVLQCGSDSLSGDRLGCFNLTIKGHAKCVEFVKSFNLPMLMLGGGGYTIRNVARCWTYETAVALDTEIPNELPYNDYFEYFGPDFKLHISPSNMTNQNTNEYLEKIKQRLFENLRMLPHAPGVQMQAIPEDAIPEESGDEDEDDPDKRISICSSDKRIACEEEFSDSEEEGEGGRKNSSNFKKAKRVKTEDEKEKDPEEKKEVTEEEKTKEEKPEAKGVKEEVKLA", "assay": "as §1"}, "Histone deacetylase 7": {"target": "T3, Histone deacetylase 7 (Homo sapiens, UniProt Q8WUI4)", "T3 sequence (Q8WUI4 whole entry)": "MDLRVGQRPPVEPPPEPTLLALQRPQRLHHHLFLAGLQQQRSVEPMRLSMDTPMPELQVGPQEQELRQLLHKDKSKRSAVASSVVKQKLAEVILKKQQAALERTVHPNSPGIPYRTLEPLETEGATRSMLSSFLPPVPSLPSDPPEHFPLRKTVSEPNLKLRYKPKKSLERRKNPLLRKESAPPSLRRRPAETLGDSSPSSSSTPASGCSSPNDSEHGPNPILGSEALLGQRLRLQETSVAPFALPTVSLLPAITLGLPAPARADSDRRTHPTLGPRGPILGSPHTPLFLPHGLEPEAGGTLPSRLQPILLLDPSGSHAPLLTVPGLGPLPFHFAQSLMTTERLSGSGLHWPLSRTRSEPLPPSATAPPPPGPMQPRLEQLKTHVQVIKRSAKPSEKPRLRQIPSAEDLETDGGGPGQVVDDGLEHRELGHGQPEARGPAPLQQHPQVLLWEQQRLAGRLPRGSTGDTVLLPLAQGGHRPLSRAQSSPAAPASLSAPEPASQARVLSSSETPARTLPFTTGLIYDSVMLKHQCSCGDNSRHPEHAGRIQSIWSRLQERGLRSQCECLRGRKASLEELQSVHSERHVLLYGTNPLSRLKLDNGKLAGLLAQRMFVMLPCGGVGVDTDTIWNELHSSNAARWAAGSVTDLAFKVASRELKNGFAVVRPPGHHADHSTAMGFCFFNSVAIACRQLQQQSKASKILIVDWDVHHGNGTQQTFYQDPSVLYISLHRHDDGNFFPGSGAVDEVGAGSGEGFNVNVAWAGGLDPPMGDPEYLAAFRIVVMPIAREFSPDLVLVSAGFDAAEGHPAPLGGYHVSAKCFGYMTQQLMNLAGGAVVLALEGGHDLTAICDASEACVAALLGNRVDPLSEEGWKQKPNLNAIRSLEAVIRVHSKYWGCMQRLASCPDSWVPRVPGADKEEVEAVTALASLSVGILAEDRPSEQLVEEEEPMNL", "assay": "as §1"}, "[2]": {"target": "T4, Protein deacetylase HDAC6 (Homo sapiens, UniProt Q9UBN7)", "T4 sequence (Q9UBN7 whole entry)": "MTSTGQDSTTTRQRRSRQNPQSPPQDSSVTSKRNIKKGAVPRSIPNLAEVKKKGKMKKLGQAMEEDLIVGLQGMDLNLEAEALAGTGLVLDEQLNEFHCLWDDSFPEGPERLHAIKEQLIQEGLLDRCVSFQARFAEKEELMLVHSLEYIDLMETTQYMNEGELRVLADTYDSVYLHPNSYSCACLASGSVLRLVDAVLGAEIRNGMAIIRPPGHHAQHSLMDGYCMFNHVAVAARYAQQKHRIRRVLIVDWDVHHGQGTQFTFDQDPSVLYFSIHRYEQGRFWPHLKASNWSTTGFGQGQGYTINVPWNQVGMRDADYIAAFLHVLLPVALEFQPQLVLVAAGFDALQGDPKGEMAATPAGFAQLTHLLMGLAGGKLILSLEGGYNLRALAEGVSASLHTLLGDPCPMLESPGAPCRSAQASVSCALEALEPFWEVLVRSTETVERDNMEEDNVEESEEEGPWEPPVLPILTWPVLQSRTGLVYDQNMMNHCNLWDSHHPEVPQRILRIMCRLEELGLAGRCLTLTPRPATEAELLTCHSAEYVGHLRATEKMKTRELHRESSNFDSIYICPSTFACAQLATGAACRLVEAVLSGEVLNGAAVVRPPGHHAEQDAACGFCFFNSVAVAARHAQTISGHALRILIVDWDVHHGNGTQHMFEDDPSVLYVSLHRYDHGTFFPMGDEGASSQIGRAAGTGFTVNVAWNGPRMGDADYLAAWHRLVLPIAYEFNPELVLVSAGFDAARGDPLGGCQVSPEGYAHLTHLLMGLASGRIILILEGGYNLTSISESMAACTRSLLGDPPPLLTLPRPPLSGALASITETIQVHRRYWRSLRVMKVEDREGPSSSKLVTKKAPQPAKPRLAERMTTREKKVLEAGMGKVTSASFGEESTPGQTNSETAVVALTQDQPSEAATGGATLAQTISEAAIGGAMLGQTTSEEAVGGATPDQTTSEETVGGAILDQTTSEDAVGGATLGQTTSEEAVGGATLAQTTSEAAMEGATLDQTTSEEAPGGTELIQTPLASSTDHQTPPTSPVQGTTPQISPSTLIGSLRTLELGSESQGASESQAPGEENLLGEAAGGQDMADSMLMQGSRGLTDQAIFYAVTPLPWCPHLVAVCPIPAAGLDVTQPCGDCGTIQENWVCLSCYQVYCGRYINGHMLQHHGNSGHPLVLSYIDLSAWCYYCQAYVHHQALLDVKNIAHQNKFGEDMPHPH", "assay": "as §1"}, "Histone deacetylase 3": {"target": "Histone deacetylase 3 (Homo sapiens, UniProt O15379)", "sequence (O15379 whole entry)": "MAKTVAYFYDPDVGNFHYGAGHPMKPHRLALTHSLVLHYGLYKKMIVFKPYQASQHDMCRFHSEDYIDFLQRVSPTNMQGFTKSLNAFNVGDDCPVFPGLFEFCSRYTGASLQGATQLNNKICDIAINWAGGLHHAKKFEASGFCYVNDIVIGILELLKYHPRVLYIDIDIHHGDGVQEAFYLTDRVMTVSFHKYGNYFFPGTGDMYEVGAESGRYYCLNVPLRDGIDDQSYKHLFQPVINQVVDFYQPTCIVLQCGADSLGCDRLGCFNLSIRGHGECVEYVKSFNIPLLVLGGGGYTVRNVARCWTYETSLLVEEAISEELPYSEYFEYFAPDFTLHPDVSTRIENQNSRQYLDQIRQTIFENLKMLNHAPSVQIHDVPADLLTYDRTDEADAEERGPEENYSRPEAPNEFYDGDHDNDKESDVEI", "assay": "as §1"}, "Histone deacetylase 11": {"target": "T5, Histone deacetylase 11 (Homo sapiens, UniProt Q96DB2)", "T5 sequence (Q96DB2 whole entry)": "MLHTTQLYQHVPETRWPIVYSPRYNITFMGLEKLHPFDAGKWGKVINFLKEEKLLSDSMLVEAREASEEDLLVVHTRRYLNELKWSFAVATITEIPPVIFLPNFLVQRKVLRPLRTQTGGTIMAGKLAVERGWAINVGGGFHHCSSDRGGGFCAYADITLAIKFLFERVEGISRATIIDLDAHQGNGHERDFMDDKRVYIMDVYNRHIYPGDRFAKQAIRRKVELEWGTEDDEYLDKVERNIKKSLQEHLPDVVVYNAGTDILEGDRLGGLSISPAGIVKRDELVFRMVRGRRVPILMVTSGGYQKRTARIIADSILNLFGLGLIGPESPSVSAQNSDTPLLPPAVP", "assay": "as §1"}, "Histone deacetylase 9": {"target": "Histone deacetylase 9 (Homo sapiens, UniProt Q9UKV0)", "sequence (Q9UKV0 whole entry)": "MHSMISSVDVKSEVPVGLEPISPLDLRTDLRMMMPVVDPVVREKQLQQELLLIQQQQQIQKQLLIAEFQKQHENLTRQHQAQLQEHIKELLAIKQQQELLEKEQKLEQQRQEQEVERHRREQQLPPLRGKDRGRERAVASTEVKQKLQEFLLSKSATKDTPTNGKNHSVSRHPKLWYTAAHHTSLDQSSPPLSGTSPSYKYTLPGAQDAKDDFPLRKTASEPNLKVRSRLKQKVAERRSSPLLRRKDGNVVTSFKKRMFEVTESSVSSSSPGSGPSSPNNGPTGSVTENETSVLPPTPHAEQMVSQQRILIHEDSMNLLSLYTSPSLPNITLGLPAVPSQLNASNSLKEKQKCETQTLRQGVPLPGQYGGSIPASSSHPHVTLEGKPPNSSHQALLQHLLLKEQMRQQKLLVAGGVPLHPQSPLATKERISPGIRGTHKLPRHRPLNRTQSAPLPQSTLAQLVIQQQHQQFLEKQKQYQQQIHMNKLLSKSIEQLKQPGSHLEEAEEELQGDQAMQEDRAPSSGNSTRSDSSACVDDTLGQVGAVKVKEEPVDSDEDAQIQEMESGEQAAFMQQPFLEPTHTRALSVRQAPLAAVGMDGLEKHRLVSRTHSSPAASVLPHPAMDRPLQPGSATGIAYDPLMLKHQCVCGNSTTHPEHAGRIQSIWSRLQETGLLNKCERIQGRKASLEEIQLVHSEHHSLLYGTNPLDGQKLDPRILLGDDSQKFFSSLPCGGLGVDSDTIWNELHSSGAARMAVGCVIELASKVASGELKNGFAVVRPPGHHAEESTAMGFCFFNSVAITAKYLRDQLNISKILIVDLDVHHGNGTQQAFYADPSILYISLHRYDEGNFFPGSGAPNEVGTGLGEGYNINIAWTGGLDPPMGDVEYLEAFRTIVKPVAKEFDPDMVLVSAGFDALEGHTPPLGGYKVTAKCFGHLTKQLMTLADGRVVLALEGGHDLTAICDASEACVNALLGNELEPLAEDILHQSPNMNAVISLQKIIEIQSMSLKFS", "assay": "as §1"}, "Histone deacetylase 4": {"target": "Histone deacetylase 4 (Homo sapiens, UniProt P56524)", "sequence (P56524 whole entry)": "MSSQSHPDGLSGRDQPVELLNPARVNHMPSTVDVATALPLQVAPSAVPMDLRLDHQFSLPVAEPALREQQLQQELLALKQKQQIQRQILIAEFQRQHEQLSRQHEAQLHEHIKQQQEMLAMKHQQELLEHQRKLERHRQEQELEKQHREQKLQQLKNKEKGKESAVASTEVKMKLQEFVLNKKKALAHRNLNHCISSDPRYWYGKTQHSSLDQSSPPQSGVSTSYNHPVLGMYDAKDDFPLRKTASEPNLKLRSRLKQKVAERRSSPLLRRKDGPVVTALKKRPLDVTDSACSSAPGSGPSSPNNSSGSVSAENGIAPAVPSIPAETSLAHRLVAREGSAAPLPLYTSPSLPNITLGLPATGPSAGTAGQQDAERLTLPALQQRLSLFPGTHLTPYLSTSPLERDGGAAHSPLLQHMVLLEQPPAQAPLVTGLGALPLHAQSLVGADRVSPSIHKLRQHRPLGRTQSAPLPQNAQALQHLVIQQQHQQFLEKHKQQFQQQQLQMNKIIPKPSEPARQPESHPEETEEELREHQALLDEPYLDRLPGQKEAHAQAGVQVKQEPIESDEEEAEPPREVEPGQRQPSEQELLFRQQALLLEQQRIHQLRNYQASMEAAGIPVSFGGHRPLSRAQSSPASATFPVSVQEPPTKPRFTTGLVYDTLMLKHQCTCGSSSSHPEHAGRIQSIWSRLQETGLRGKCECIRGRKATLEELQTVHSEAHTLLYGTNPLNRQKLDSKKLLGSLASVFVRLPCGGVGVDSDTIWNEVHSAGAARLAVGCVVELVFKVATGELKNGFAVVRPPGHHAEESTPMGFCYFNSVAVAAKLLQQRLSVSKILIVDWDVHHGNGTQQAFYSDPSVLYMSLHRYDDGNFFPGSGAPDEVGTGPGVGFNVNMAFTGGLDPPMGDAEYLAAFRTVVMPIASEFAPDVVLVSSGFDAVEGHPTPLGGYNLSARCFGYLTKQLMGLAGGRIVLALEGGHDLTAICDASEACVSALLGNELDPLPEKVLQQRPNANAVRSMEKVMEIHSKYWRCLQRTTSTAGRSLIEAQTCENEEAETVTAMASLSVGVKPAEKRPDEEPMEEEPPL", "assay": "as §1"}}, "data": [{"smiles": "O=C(CCCCCCNC(=O)c1cnc(N(c2ccccc2)c2ccccc2)nc1)NO", "note": "[RICOLINOSTAT]", "values": [{"measurement": "IC50", "setting": "[1]", "result": "> 1000", "unit": "nM"}]}, {"smiles": "CN(Cc1ccc(/C=C/C(=O)NO)cc1F)CC12CC3CC(CC(C3)C1)C2", "values": [{"measurement": "IC50", "setting": "Histone deacetylase 8", "result": "> 1000", "unit": "nM"}, {"measurement": "IC50", "setting": "Histone deacetylase 5", "result": "> 1000", "unit": "nM"}, {"measurement": "IC50", "setting": "[1]", "result": 33, "unit": "nM"}, {"measurement": "IC50", "setting": "Histone deacetylase 1", "result": 17, "unit": "nM"}, {"measurement": "IC50", "setting": "Histone deacetylase 7", "result": "> 1000", "unit": "nM"}, {"measurement": "IC50", "setting": "[2]", "result": 180, "unit": "nM"}, {"measurement": "IC50", "setting": "Histone deacetylase 3", "result": 23, "unit": "nM"}, {"measurement": "IC50", "setting": "Histone deacetylase 11", "result": "> 1000", "unit": "nM"}, {"measurement": "IC50", "setting": "Histone deacetylase 9", "result": "> 1000", "unit": "nM"}, {"measurement": "IC50", "setting": "Histone deacetylase 4", "result": "> 1000", "unit": "nM"}]}, {"smiles": "CC(=O)Nc1ccc(C(=O)Nc2ccccc2N)cc1", "note": "[TACEDINALINE]", "values": [{"measurement": "IC50", "setting": "Histone deacetylase 11", "result": 2830, "unit": "nM"}]}]}
